The record followed here is patent publication US12037324B2, “Biarylmethyl heterocycles” (Université de Montréal, priority 2016, dated 2024).

The target of test [1] is T1, hAT1R (Homo sapiens, UniProt P30556).
T1 sequence (P30556 1-359): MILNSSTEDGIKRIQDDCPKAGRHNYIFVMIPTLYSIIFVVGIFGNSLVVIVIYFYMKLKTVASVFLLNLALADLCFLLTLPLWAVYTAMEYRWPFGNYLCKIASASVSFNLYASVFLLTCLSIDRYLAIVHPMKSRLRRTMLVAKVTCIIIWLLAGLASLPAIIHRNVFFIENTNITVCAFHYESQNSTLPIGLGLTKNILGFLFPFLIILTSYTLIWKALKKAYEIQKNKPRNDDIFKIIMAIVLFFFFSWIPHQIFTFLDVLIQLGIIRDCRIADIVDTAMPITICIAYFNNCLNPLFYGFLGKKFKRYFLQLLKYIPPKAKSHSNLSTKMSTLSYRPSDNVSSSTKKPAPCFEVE
Kind of test: BRET Gq biosensor assay, agonist response, HEK293 cells. The test is classed as cell-based. Conditions: section of the 42nd table directly before the BRET P63 section. In short, it runs like this:
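Agonist EC50 derived from a 4-parameter fit of BRET2 ratio (GFP 515 nm/Rluc 410 nm), scaled between unstimulated control and maximal AngII response. Readings taken 5 min after compound addition at room temperature, with 2 μM coelenterazine, in HEK293 cells expressing hAT1R, Gαq-Rluc, Gβ1 and GFP-Gγ1 (transfected two days earlier).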
(Bioluminescence resonance energy transfer reports proximity on the nanometre scale.)

Test [2] concerns the target T1, hAT1R. Kind of test: cell-based. Conditions: agonist mode; for EC50: read-out: BRET P63 EC50.
In test [3] the target is T1, hAT1R. The experiment in a line: cell-based. Conditions: section of the 42nd table ending at r951, example numbering restarts after the DiscoveRx section; read-out: β-arrestin2 EC50.
Test [4] addresses T1, hAT1R. Kind of test: BRET β-arrestin2 biosensor assay, higher receptor expression (hAT1R 5 ng/well), HEK293 cells. The class given is cell-based. Conditions: for EC50: High AT1R Expression.
For another test, the target named is T2, AGTR1 (Homo sapiens, UniProt P30556).
T2 construct: host or cells: Pathunter CHO-K1 AGTR1 β-arrestin cell line (CHO-K1)
T2 sequence (P30556 1-359): T1 sequence (P30556 1-359)
The experiment in a line: DiscoveRx β-arrestin2 recruitment assay (enzyme complementation, Pathunter CHO-K1 AGTR1 β-arrestin cell line). The test is classed as cell-based. Conditions: DiscoveRx β-arrestin2 recruitment. In short, it runs like this:
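Chemiluminescent enzyme-complementation read-out of β-arrestin2 recruitment to AGTR1 in engineered CHO-K1 cells after 90 min compound exposure at 37° C. Values are 4-parameter logistic EC50s in agonist mode, IC50s in antagonist mode, with efficacy relative to the maximal All response.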

In general, EC50 refers to the concentration that produces a half-maximal response.

For the compound `CCCc1nc(CC)c(C(=O)O)n1Cc1ccc(-c2cc(-c3ccccc3)ccc2-c2nn[nH]n2)cc1` [Example 396, 1-((6′-(2H-tetrazol-5-yl)-[1,1′:3′,1″-terphenyl]-4-yl)methyl)-4-ethyl-2-propyl-1H-imidazole-5-carboxylic acid], the EC50 at hAT1R [1] is 274 nM; on hAT1R [2], greater than 100000 nM; at hAT1R [3] it was 14.1 nM; at hAT1R [4] it was 6.4 nM; at AGTR1, 5 nM. Moreover, the “BRET β-Arrestin2 High AT1R Expression Ymax (%)” value on hAT1R [4] turned out to be 88.8%. At AGTR1 (maximal response), the “DiscoveRx β-arrestin2 Ymax (%)” value worked out at 57.8%.
Consider `CCCCc1nc(Cl)c(C(=O)O)n1Cc1ccc(-c2cc(-c3ccccc3)ccc2C(=O)O)cc1` [Example 410, 2-butyl-1-((6′-carboxy-[1,1′:3′,1″-terphenyl]-4-yl)methyl)-4-chloro-1H-imidazole-5-carboxylic acid], for which the EC50 is greater than 100000 nM on hAT1R [1]; greater than 10000 nM at hAT1R [2]; 98.2 nM at hAT1R [3]; 82.1 nM at hAT1R [4]; 26.9 nM on AGTR1. In addition, the “BRET β-Arrestin2 High AT1R Expression Ymax (%)” value at hAT1R [4] is recorded as 69.7%. Moreover, the “DiscoveRx β-arrestin2 Ymax (%)” value on AGTR1 (maximal response) amounted to 41.9%.
Regarding `CCCCC(=O)N(Cc1ccc(-c2cc(-c3cc(C)ccn3)ccc2-c2nn[nH]n2)cc1)C1(C(=O)O)CCCCC1` [Example 295], the EC50 on hAT1R [1] stood at 217 nM; at hAT1R [2] it was 120 nM; at hAT1R [3], 39 nM; on hAT1R [4], 14 nM; at AGTR1, 47.5 nM. The “BRET P63 Ymax” value at hAT1R [2] is reported as 12.9%. Also, the “BRET β-Arrestin2 High AT1R Expression Ymax (%)” value on hAT1R [4] amounted to 92.5%. In addition, the “DiscoveRx β-arrestin2 Ymax (%)” value on AGTR1 (maximal response) turned out to be 60.3%.
As for `CCCCC(=O)N(Cc1ccc(-c2cc(-c3cc(C)ccn3)ccc2-c2nn[nH]n2)cc1)[C@H](C(=O)O)C(C)C` [Example 445], the EC50 on hAT1R [1] was 140 nM; on hAT1R [2], 103 nM; on hAT1R [3], 36 nM; at hAT1R [4], 9.8 nM; at AGTR1 it was 37.7 nM. For the same compound, the “BRET P63 Ymax” value on hAT1R [2] came out at 24.0%. Moreover, the “BRET β-Arrestin2 High AT1R Expression Ymax (%)” value on hAT1R [4] turned out to be 91.3%. In addition, the “DiscoveRx β-arrestin2 Ymax (%)” value on AGTR1 is 61.2%.
As to `CCCCc1nc(Cl)c(C(=O)O)n1Cc1ccc(-c2cc(-c3ccccc3)ccc2-c2noc(=O)[nH]2)cc1` [Example 404, 2-butyl-4-chloro-1-((6′-(5-oxo-4,5-dihydro-1,2,4-oxadiazol-3-yl)-[1,1′:3′,1″-terphenyl]-4-yl)methyl)-1H-imidazole-5-carboxylic acid], the half-maximal effective concentration (EC50) at hAT1R [1] was 70.4 nM; at hAT1R [2], greater than 10000 nM; on hAT1R [3], 69.4 nM; at hAT1R [4] it was 14.3 nM; on AGTR1, 9.6 nM. For the same compound, the “BRET β-Arrestin2 High AT1R Expression Ymax (%)” value on hAT1R [4] is recorded as 89.7%. Also, the “DiscoveRx β-arrestin2 Ymax (%)” value at AGTR1 (maximal response) is recorded as 38.6%.
As to `CCCCc1nc(Cl)c(C(=O)O)n1Cc1ccc(-c2cc(C3CCCCC3)ccc2-c2nn[nH]n2)cc1` [Example 424, 2-butyl-4-chloro-1-((5′-cyclohexyl-2′-(2H-tetrazol-5-yl)-[1,1′-biphenyl]-4-yl)methyl)-1H-imidazole-5-carboxylic acid], the EC50 on hAT1R [1] was 2790 nM; on hAT1R [2], greater than 100000 nM; at hAT1R [3], 35.3 nM; at hAT1R [4], 67.8 nM; at AGTR1, 99.3 nM. Moreover, on hAT1R [4], the “BRET β-Arrestin2 High AT1R Expression Ymax (%)” value turned out to be 76.7%. Besides, the “DiscoveRx β-arrestin2 Ymax (%)” value on AGTR1 (maximal response) came out at 28.6%.
On to `CCOc1nc2cccc(C(=O)O)c2n1Cc1ccc(-c2cc(-c3ccccc3)ccc2C(=O)O)cc1` [Example 314, 1-((6′-carboxy-[1,1′:3′,1″-terphenyl]-4-yl)methyl)-2-ethoxy-1H-benzo[d]imidazole-7-carboxylic acid], for which the EC50 is 129 nM on hAT1R [1]; 67.8 nM at hAT1R [2]; 36.6 nM on hAT1R [3]; 5.8 nM on hAT1R [4]; 3.5 nM at AGTR1. Besides, the “BRET P63 Ymax” value on hAT1R [2] is reported as 12.8%. For the same compound, the “BRET β-Arrestin2 High AT1R Expression Ymax (%)” value on hAT1R [4] came out at 90.3%. Also, the “DiscoveRx β-arrestin2 Ymax (%)” value at AGTR1 (maximal response) amounted to 66.8%.
For `CCOc1nc2cccc(C(=O)O)c2n1Cc1ccc(-c2cc(-c3cccc(C)c3)ccc2C(=O)O)cc1` [Example 313, 1-((6′-carboxy-3″-methyl-[1,1′:3′,1″-terphenyl]-4-yl)methyl)-2-ethoxy-1H-benzo[d]imidazole-7-carboxylic acid], the concentration giving a half-maximal response (EC50) is 82.1 nM at hAT1R [1]; 46.7 nM at hAT1R [2]; 21.5 nM on hAT1R [3]; 7.7 nM on hAT1R [4]; 28.1 nM at AGTR1. For the same compound, on hAT1R [2], the “BRET P63 Ymax” value is recorded as 6.3%. In addition, at hAT1R [4], the “BRET β-Arrestin2 High AT1R Expression Ymax (%)” value is listed as 92.9%. Moreover, the “DiscoveRx β-arrestin2 Ymax (%)” value on AGTR1 (maximal response) is given as 46.1%.
